Laboratory results taken from US12391737B2, “Soluble NPY2 receptor agonists” (Boehringer Ingelheim International GmbH, priority 2020, dated 2025).

Experiments:
[1] = biological target: T1, human NPY2 receptor (hY2R) (Homo sapiens, UniProt P49146); assay: HTRF cAMP Gi assay, hY2R
T1 sequence (P49146 1-381): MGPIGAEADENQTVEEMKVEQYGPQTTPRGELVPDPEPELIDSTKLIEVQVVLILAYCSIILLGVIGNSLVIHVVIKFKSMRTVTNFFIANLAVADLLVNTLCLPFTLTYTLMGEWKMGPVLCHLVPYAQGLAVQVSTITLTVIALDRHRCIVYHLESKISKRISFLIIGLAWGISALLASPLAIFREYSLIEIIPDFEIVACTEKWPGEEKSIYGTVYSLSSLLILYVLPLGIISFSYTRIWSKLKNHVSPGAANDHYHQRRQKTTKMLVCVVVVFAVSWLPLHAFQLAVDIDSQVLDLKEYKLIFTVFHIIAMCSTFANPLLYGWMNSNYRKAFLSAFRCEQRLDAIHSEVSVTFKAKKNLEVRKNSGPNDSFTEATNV
From the text: The Homogenous Time Resolved fluorescence (HTRF) technology optimized for Gi coupled receptors has thoroughly been described in Cisbio cAMP Gi kit manual. Briefly, the production of intracellular cAMP will generate a competition between unlabeled cAMP and exogenously added d2-cAMP for anti-cAMP antibodies conjugated to cryptate. CHO-K1 cells stably expressing the human NPY1, NPY2, NPY4 and NPY5 receptors were used with the cells brought to life from a frozen stock immediately before assay performance. 2000 cells per well were applied for all four NPY receptor subtype assays. A 384-well format was used applying a total volume of 20 μl using 5 μl cells, 2.5 μl peptide agonist, 2.5 μl forskolin and 5 μl of each of the fluorophores. […] Concentration-response evaluation of compounds was performed with 11 concentrations of agonist peptides (covering 3 decades). EC50 values were calculated by nonlinear regression using sigmoid concentration-response with variable slope.

[2] = biological target: T2, human NPY4 receptor (hY4R) (Homo sapiens, UniProt P50391); assay: HTRF cAMP Gi assay, hY4R; format: cell-based; settings: CHO-K1 cells
T2 construct: expressed in transfected cells; host or cells: CHO-K1

[3] = Solubility determination; settings: for Sol6: pH 6; for Sol7: pH 7
How it was run: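 Solubility is derived from the ratio of reversed-phase peak areas, filtered sample over a control dissolved at 1 mg/ml in 50% acetonitrile. Peptides are agitated for 2 hours at room temperature in 0.1 M sodium diphosphate at pH 6.4 or 7.0, aiming at 10 mg/ml.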

[4] = biological target: T3, human NPY5 receptor (hY5R) (Homo sapiens, UniProt Q15761); assay: HTRF cAMP Gi assay, hY5R
T3 sequence (Q15761 1-445): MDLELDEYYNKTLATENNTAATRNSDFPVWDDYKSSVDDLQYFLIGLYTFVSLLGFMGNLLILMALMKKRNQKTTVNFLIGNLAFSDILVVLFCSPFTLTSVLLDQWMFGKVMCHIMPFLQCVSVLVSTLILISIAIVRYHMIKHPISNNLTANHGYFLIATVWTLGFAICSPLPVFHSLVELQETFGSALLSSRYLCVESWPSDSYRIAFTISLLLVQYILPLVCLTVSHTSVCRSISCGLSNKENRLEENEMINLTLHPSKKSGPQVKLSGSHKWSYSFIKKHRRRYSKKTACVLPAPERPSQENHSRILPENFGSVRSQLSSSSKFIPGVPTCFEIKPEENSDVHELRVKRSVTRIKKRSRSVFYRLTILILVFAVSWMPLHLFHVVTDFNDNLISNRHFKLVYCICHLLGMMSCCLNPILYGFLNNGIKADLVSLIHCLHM

[5] = biological target: T4, Human Neuropeptide Y2 Receptor (Homo sapiens, UniProt P49146); assay: Radioligand binding competition assay (RLB); settings: Table 3, 125I-PYY(1-36) competition; read-out: Ki
T4 construct: purchased CHEMICON HTS066M
T4 sequence (P49146 1-381): T1 sequence (P49146 1-381)
How it was run: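 Peptides were serially diluted from 1 mM DMSO stocks and competed for radioligand binding to receptor membranes (0.5 μg/well) over 2 h at room temperature, pH 7.4 HEPES buffer. Bound radioactivity on filters was counted by scintillation, and IC50 was derived by nonlinear regression.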

[6] = biological target: T5, human NPY1 receptor (hY1R) (Homo sapiens, UniProt P25929); assay: HTRF cAMP Gi assay, hY1R; format: cell-based; settings: CHO-K1 cells
T5 construct: expressed in transfected cells; host or cells: CHO-K1
T5 sequence (P25929 1-384): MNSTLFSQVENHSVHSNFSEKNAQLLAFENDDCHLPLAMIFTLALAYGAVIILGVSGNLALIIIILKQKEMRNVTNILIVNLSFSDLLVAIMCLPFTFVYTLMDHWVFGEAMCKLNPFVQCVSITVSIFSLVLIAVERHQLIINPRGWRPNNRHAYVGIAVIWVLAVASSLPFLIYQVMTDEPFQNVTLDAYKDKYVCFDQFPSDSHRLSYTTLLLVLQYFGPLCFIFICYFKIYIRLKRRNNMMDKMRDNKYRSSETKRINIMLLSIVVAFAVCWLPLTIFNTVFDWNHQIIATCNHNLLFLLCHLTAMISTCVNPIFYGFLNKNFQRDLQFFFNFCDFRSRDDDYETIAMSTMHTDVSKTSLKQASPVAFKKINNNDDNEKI
Method: Briefly, the production of intracellular cAMP will generate a competition between unlabeled cAMP and exogenously added d2-cAMP for anti-cAMP antibodies conjugated to cryptate. CHO-K1 cells stably expressing the human NPY1, NPY2, NPY4 and NPY5 receptors were used with the cells brought to life from a frozen stock immediately before assay performance. 2000 cells per well were applied for all four NPY receptor subtype assays. A 384-well format was used applying a total volume of 20 μl using 5 μl cells, 2.5 μl peptide agonist, 2.5 μl forskolin and 5 μl of each of the fluorophores. […] Concentration-response evaluation of compounds was performed with 11 concentrations of agonist peptides (covering 3 decades). EC50 values were calculated by nonlinear regression using sigmoid concentration-response with variable slope.

T2 sequence (P50391 whole entry): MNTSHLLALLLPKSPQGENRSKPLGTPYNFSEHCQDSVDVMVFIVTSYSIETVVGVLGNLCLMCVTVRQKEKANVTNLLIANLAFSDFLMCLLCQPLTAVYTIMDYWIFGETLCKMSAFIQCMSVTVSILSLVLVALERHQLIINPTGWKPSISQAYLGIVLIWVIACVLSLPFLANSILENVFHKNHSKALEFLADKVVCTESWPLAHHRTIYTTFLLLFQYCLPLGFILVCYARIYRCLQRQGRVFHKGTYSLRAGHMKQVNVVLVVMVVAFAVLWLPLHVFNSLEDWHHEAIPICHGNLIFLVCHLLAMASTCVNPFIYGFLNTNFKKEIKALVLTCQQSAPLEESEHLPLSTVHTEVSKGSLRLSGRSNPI

EC50 [1] [nM]	EC50 [2] [nM]	Sol6 [3] [mg/mL]	Sol7 [3] [mg/mL]	EC50 [4] [nM]	Ki [5] [nM]	EC50 [6] [nM]	Structure (SMILES)
0.197	> 5000	8.2	8.2	> 5000	0.78	> 5000	CC[C@H](C)[C@H](NC(=O)[C@H](Cc1ccc(O)cc1)NC(=O)[C@H](Cc1ccc(O)cc1)NC(=O)[C@H](CCCNC(=N)N)NC(=O)[C@H](CCC(N)=O)NC(=O)[C@@H](NC(=O)[C@H](CCC(=O)O)NC(=O)[C@H](CCC(=O)O)NC(=O)[C@@H]1CCCN1C(=O)[C@H](CO)NC(=O)[C@H](C)NC(=O)[C@H](CC(=O)O)NC(=O)[C@H](CCC(=O)O)NC(=O)[C@H](CCC(=O)O)NC(=O)[C@@H]1CCCN1C(=O)[C@H](CCCCNC(=O)CCCCCNC(=O)CC[C@H](NC(=O)CCCCCCCCCCCCCCCCC(=O)O)C(=O)O)NC(=O)[C@H](C)NC(=O)[C@@H]1CCCN1C(=O)[C@H](C)NC(=O)CC(C)C)[C@@H](C)CC)C(=O)N[C@@H](CO)C(=O)N[C@@H](CC(C)C)C(=O)N[C@@H](CCCNC(=N)N)C(=O)N[C@@H](Cc1c[nH]cn1)C(=O)N[C@@H](Cc1ccc(O)cc1)C(=O)N[C@@H](Cc1ccc(O)cc1)C(=O)N[C@@H](CC(N)=O)C(=O)N[C@@H](Cc1c[nH]c2ccccc12)C(=O)N[C@@H](CC(C)C)C(=O)N[C@H](C(=O)N[C@@H](CCCNC(=N)N)C(=O)N[C@@H](CCC(N)=O)C(=O)N[C@@H](CCCNC(=N)N)C(=O)N[C@@H](Cc1ccc(O)cc1)C(N)=O)[C@@H](C)O [Compound 195, N{alpha-4}-(3-methylbutanoyl)-N{epsilon-7}-(6-[(4S)-4-carboxy-4-(17-carboxyheptadecanamido)butanamido]hexanoyl)-[4A,6A,7K,9E,17I,18Q,22I,28Y,30W,31L]-hPYY(4-36)]
0.352	> 5000	8.7	9.6	> 5000	3.07	> 5000	CC(C)CC(=O)N[C@@H](C)C(=O)N1CCC[C@H]1C(=O)N[C@@H](CCC(=O)O)C(=O)N[C@@H](CCCCNC(=O)CCCCCNC(=O)CC[C@H](NC(=O)CCCCCCCCCCCCCCCCC(=O)O)C(=O)O)C(=O)N1CCC[C@H]1C(=O)N[C@@H](CCC(=O)O)C(=O)N[C@@H](CCC(=O)O)C(=O)N[C@@H](CC(=O)O)C(=O)N[C@@H](C)C(=O)N[C@@H](CCC(=O)O)C(=O)N1CCC[C@H]1C(=O)N[C@@H](CCC(=O)O)C(=O)N[C@@H](CCC(=O)O)C(=O)N[C@H](C(=O)N[C@@H](CCC(N)=O)C(=O)N[C@@H](CCCNC(=N)N)C(=O)N[C@@H](Cc1ccc(O)cc1)C(=O)N[C@@H](Cc1ccc(O)cc1)C(=O)N[C@H](C(=O)N[C@@H](CO)C(=O)N[C@@H](CC(C)C)C(=O)N[C@@H](CCCNC(=N)N)C(=O)N[C@@H](Cc1c[nH]cn1)C(=O)N[C@@H](Cc1ccc(O)cc1)C(=O)N[C@@H](Cc1ccc(O)cc1)C(=O)N[C@@H](CC(N)=O)C(=O)N[C@@H](Cc1c[nH]c2ccccc12)C(=O)N[C@@H](CC(C)C)C(=O)N[C@H](C(=O)N[C@@H](CCCNC(=N)N)C(=O)N[C@@H](CCC(N)=O)C(=O)N[C@@H](CCCNC(=N)N)C(=O)N[C@@H](Cc1ccc(O)cc1)C(N)=O)[C@@H](C)O)C(C)C)C(C)C [Compound 53, N{alpha-4}-(3-methylbutanoyl)-N{epsilon-7}-(6-[(4S)-4-carboxy-4-(17-carboxyheptadecanamido)butanamido]hexanoyl)-[4A,7K,9E,13E,17V,18Q,22V,28Y,30W,31L]-hPYY(4-36)]
0.352	> 5000	>10.0	>10.0	> 5000	2.96	> 5000	CC[C@H](C)[C@H](NC(=O)[C@H](CCC(=O)O)NC(=O)[C@H](CCC(=O)O)NC(=O)[C@H](CCC(=O)O)NC(=O)[C@H](CO)NC(=O)[C@H](C)NC(=O)[C@H](CC(=O)O)NC(=O)[C@H](CCC(=O)O)NC(=O)[C@H](CCC(=O)O)NC(=O)[C@@H]1CCCN1C(=O)[C@H](CCCCNC(=O)CCCCCNC(=O)CC[C@H](NC(=O)CCCCCCCCCCCCCCCCC(=O)O)C(=O)O)NC(=O)[C@H](CCC(=O)O)NC(=O)[C@@H]1CCCN1C(=O)[C@H](C)NC(=O)CC(C)C)C(=O)N[C@@H](CCC(N)=O)C(=O)N[C@@H](CCCNC(=N)N)C(=O)N[C@@H](Cc1ccc(O)cc1)C(=O)N[C@@H](Cc1ccc(O)cc1)C(=O)N[C@H](C(=O)N[C@@H](CO)C(=O)N[C@@H](CC(C)C)C(=O)N[C@@H](CCCNC(=N)N)C(=O)N[C@@H](Cc1c[nH]cn1)C(=O)N[C@@H](Cc1ccc(O)cc1)C(=O)N[C@@H](Cc1ccc(O)cc1)C(=O)N[C@@H](CC(N)=O)C(=O)N[C@@H](Cc1c[nH]c2ccccc12)C(=O)N[C@@H](CC(C)C)C(=O)N[C@H](C(=O)N[C@@H](CCCNC(=N)N)C(=O)N[C@@H](CCC(N)=O)C(=O)N[C@@H](CCCNC(=N)N)C(=O)N[C@@H](Cc1ccc(O)cc1)C(N)=O)[C@@H](C)O)C(C)C [Compound 55, N{alpha-4}-(3-methylbutanoyl)-N{epsilon-7}-(6-[(4S)-4-carboxy-4-(17-carboxyheptadecanamido)butanamido]hexanoyl)-[4A,7K,9E,14E,17I,18Q,22V,28Y,30W,31L]-hPYY(4-36)]
0.13		9.8	9.6	> 5000	8.93		CC(C)CC(=O)N[C@@H](C)C(=O)N1CCC[C@H]1C(=O)N[C@@H](CCC(=O)O)C(=O)N[C@@H](CCCCNC(=O)CCCCCNC(=O)CC[C@H](NC(=O)CCCCCCCCCCCCCCCCC(=O)O)C(=O)O)C(=O)N1CCC[C@H]1C(=O)N[C@@H](CCC(=O)O)C(=O)N[C@@H](CCC(=O)O)C(=O)N[C@@H](CCC(=O)O)C(=O)N[C@@H](C)C(=O)N[C@H](C(=O)N1CCC[C@H]1C(=O)N[C@@H](CCC(=O)O)C(=O)N[C@@H](CCC(=O)O)C(=O)N[C@@H](CC(C)C)C(=O)N[C@@H](CCC(N)=O)C(=O)N[C@@H](CCCNC(=N)N)C(=O)N[C@@H](Cc1ccc(O)cc1)C(=O)N[C@@H](Cc1ccc(O)cc1)C(=O)N[C@H](C(=O)N[C@@H](CO)C(=O)N[C@@H](CC(C)C)C(=O)N[C@@H](CCCNC(=N)N)C(=O)N[C@@H](Cc1c[nH]cn1)C(=O)N[C@@H](Cc1ccc(O)cc1)C(=O)N[C@@H](Cc1ccc(O)cc1)C(=O)N[C@@H](CC(N)=O)C(=O)N[C@@H](Cc1c[nH]c2ccccc12)C(=O)N[C@@H](CC(C)C)C(=O)N[C@H](C(=O)N[C@@H](CCCNC(=N)N)C(=O)N[C@@H](CCC(N)=O)C(=O)N[C@@H](CCCNC(=N)N)C(=O)N[C@@H](Cc1ccc(O)cc1)C(N)=O)[C@@H](C)O)C(C)C)[C@@H](C)O [Compound 146, N{alpha-4}-(3-methylbutanoyl)-N{epsilon-7}-(6-[(4S)-4-carboxy-4-(17-carboxyheptadecanamido)butanamido]hexanoyl)-[4A,7K,9E,11E,13T,18Q,22V,28Y,30W,31L]-hPYY(4-36)]
